Source: patent US20050095281A1, “Liposomal formulations and methods of use” (OPTIME Therapeutics, Inc., priority 2003, published 2005)

Legend:
[1] = system: human cervical epithelium; test: Histological evaluation of excised human cervical tissue ex vivo (Franz diffusion cell); settings: 2% polysorbate 80 (data not shown)
Lactobacillus = settings: previously shown; cited from earlier work

polysorbate 80
histological changes in human cervical epithelium [1]: Severe shedding of the epithelial layers

CCCOC(=O)c1ccc(O)cc1 [propylparaben]
toxicity of preservatives to Lactobacillus (Lactobacillus): nontoxic

COC(=O)c1ccc(O)cc1 [methylparaben]
toxicity of preservatives to Lactobacillus (Lactobacillus): nontoxic
